Key:
[1] = Absorption and fluorescence titration of the indicator with ZnCl2 in CH3CN; type: binding
Experimental: FIG. 3 is a graph depicting fluorescence intensity increase (F/F0 at 630 nm) of zinc(II) ion indicator (4) (3.0 μM), with increasing [ZnCl2]. The solid line is the fitting curve of F/F0 vs. [Zn^2+] based on a 1:1 binding isotherm equation. See Zhu, L.; Zhong, Z.; Anslyn, E. V. J. Am. Chem. Soc. 2005, 127, 4260-4269.
FIGS. 4A and 4B are graphs depicting (4A) Absorption spectra for the titration of zinc(II) ion indicator (4) (3.0 μM) with ZnCl2 (0-18 μM) in CH3CN, and (4B) Fluorescence spectral change of zinc(II) ion indicator (4) (3.0 μM) with different concentrations of ZnCl2 (0-18 μM) in CH3CN (λex 400 nm).
FIG. 5 is a graph depicting fluorescence spectral change of zinc(II) ion indicator (4) (2.5 μM) with different concentrations of ZnCl2 (0-16 μM) in CH3CN (λex=600 nm).
The syntheses of the separate FRET donor and acceptor systems (1-3) and indicators for zinc(II) (4, 5) are described in the examples. Absorption spectrum of zinc(II) ion indicator compound (4) in CH3CN consists of two bands over 300 nm (FIG. 4A). The band centered at 346 nm corresponds to the absorption of the bipy-containing FRET donor moiety, which we term the D band. The band centered at 600 nm corresponds to the NDI moiety which is termed the A band. Upon addition of increasing amount of ZnCl2, as a result of zinc(II) coordination at the bipy moiety, the charge-transfer D band undergoes a bathochromic shift from 346 nm to 370 nm. The A band, meanwhile, experiences a slight hypochromic shift.
The fluorescence titration profile of zinc(II) ion indicator compound (4) with ZnCl2 upon excitation at 400 nm is shown in FIG. 4B. […] This signal may have arisen from the direct excitation of the NDI component. Upon addition of increasing amount of ZnCl2 from 0-18 μM, the emission at 630 nm intensifies, and reaches saturation with 12-fold enhancement in integrated intensity (See Table 1 for spectroscopic data). […] These observations are consistent with the involvement of a zinc(II)-modulated intramolecular excitation energy transfer process. Furthermore, the differed sensitivity to excitation wavelength of zinc(II) ion indicator (4) offers an opportunity to correlate [Zn^2+] and fluorescence change ratiometrically. […]
Reagents and solvents were purchased from various commercial sources and used without further purification unless otherwise stated. […] Silica and alumina gel was flame-dried under vacuum to remove absorbed moisture before use. ^1H NMR spectra were recorded at 300 MHz on a Varian Mercury spectrometer. ^13C NMR spectra were recorded at 125 MHz, on a Bruker Avance spectrometer. […] Spectrophotometric and fluorometric titrations were conducted on a Varian Cary 100 Bio UV-Visible Spectrophotometer and a Varian Cary Eclipse Fluorescence Spectrophotometer, respectively, with a 1-cm standard quartz cell. […]

[2] = Fluorescence titration with ZnCl2 in aqueous/organic mixed solvent (1:9 MOPS buffer pH 7.2/CH3CN); type: binding; conditions: λex 400 nm
Experimental: FIG. 9 is a graph depicting emission spectra for the titration of zinc(II) ion indicator (4) (2.5 μM) with ZnCl2 (0-22 μM) in water-CH3CN (1:9) mixture (MOPES buffer, 10 mM, pH=7.2, λex=400 nm).
The titration experiments using zinc(II) ion indicator (4) were also carried out in an aqueous/organic mixed solvent (1:9 MOPS buffer (pH 7.2)/CH3CN). […] (FIG. 9). Comparing to the observations in CH3CN, the fluorescence is rather dim. The loss of fluorescence can be explained by the hydrogen bonding interaction between the protic solvent and the carbonyl groups on NDI, which provides a non-radiative deactivation pathway. See F. Würthner, S. Ahmed, C. Thalacker and T. Debaerdemaeker, Chem. Eur. J., 2002, 8, 4742. […] By extension, the fluorescence of zinc(II) ion indicators (4) and (5) would not be affected by the fluctuations of pH within the physiological range.

[3] = Fluorescence response to various metal ions (metal ion selectivity); conditions: indicator 3.0 μM, 1:9 water/CH3CN pH 7.2, λex 400 nm
Experimental: FIG. 8 is a chart depicting fluorescence spectroscopic responses of zinc(II) ion indicator (4) (3.0 μM, λex 400 nm) to various metal ions in 1:9 water/CH3CN mixture at pH 7.2 (30 mM of MOPS buffer). Clear bars represent intensity in the presence of various metal ions (perchlorate salt). Metal ion concentrations of Na^+, K^+, Ca^2+, Mg^2+ were 1.0 mM and for other ions 30 μM. Hatch marked bars represent the fluorescence following subsequent addition of Zn(ClO4)2 (30 μM).
The fluorescence dependence of zinc(II) ion indicator (4) on the identity of metal ion was evaluated (FIG. 8). […] The observed metal ion selectivity can be understood based on the Irving-Williams series and HSAB theory.

Compound: COCCCNc1cc2c3c(c(NCCOc4ccc(/C=C/c5ccc(-c6ccc(COCCOCCOC)cn6)nc5)cc4)cc4c3c1C(=O)N(CCCOC)C4=O)C(=O)N(CCCOC)C2=O [Compound (4)]
- enhancement in integrated intensity of emission at 630 nm at saturation ([1]; CH3CN, ZnCl2 0-18 μM, λex 400 nm): 12 fold
- D band absorption after bathochromic shift upon addition of ZnCl2 ([1]; CH3CN, increasing ZnCl2): 370 nm
- fluorescence intensity on variation of zinc(II) concentration when NDI is directly excited ([1]; CH3CN, λex 600 nm): not affected much
- Kd ([1]; indicator 3.0 μM, F/F0 at 630 nm vs [ZnCl2], fit to 1:1 binding isotherm, read-out: Dissociation constant Kd): 9.1 µM
- fluorescence enhancement on increasing [Zn^2+] [2]: 3 fold
- fluorescence response to cadmium(II) ([3]; 30 μM metal ion): acts similarly to zinc(II) in resulting strong fluorescence from NDI
- fluorescence response to iron(II) and copper(II) ([3]; 30 μM metal ion): quench fluorescence
- fluorescence response to manganese(II) and lead(II) ([3]; 30 μM metal ion): fail to alter the fluorescence
- fluorescence response to alkali and alkaline earth metal ions ([3]; Na+, K+, Ca2+, Mg2+ 1.0 mM): do not elicit a fluorescence response
